Patent publication US11439148B2, “Pyrimidine derivatives” (SYNGENTA PARTICIPATIONS AG, priority 2017, dated 2022)
Several values for one entry are separate records, joined by “and”; a condition that tells them apart may be missing. Identical values can stand only once.

Columns and labels:
Format in all cases: in vivo
[1] = tested on: four weed species (ABUTH, CHEAL, IPOHE, SETVI); assay: Adjuvant efficacy with fomesafen, glasshouse spray test, average over all species; conditions: fomesafen sodium salt SL, mean over 100 and 200 g/ha, adjuvant 0.2% v/v (none in No Adjuvant rows), 21 days, average of ABUTH
Protocol: (§1) The efficacy of adjuvants 1-12 as adjuvants for the herbicide fomesafen (as the sodium salt) were tested in a glasshouse against four weed species, sown into standard soil in pots and cultivated under controlled conditions in a glasshouse (at 24/18° C. day/night; 16 hours light, 65% humidity). Fomesafen sodium salt was added to the spray tank as a standard SL (soluble concentrate) formulation.
(§2) The spray tests were also carried out using fomesafen in conjunction with adjuvants 1-12. Unless otherwise stated, the adjuvants were added to the spray solution at a rate of 0.2% v/v. All spray solutions also contained 12.5% v/v of iso-Propanol to normalise the retention of the sprays on the hydrophobic plant surfaces. The weed species and their BBCH growth stage at spraying were Abutilon theophrasti (ABUTH; growth stage 12-13), Chenopodium album (CHEAL; growth stage 15), Ipomea hederacea (IPOHE; growth stage 12), and Setaria viridis (SETVI; growth stage 14). Each spray test was replicated three times. The test plants were then grown in a glasshouse under controlled conditions (at 24/18° C. day/night; 16 hours light; 65% humidity) and watered twice a day.
(§3) The efficacy of the herbicide was assessed visually and expressed as a percentage of the leaf area killed. Samples were assessed at a time period of 21 days following application. The results shown in Table 2 below are mean averages over the two rates of fomesafen, the three replicates […].

[2] = tested on: four weed species (ABUTH, CHEAL, DIGSA, SETVI); assay: Adjuvant efficacy with nicosulfuron, glasshouse spray test, average over all species; conditions: nicosulfuron WG, mean over 15 and 60 g/ha, adjuvant 0.2% v/v (none in No Adjuvant rows), 21 days, average of ABUTH
Protocol: The efficacy of adjuvants 1-12 as adjuvants for the herbicide nicosulfuron were tested in a glasshouse against four weed species sown into standard soil in pots and cultivated under controlled conditions in a glasshouse (at 24/18° C. day/night; 16 hours light; 65% humidity). Nicosulfuron was added to the spray tank as a standard WG (water dispersible granule) formulation.
The spray tests were also carried out using nicosulfuron in conjunction with adjuvants 1-12. The adjuvant was added to the spray solution at a rate of 0.2% v/v. All spray solutions also contained 12.5% v/v of iso-Propanol. The weed species and their BBCH growth stage at spraying were Abutilon theophrasti (ABUTH; growth stage 13), Chenopodium album (CHEAL; growth stage 13-14), Digitaria sanguinalis (DIGSA; growth stage 11), and Setaria viridis (SETVI; growth stage 13). Each spray test was replicated three times. The test plants were then grown in a glasshouse under controlled conditions (at 24/18° C. day/night; 16 hours light; 65% humidity) and watered twice a day. The efficacy of the herbicide was assessed visually and expressed as a percentage of the leaf area killed. Samples were assessed at a time period of 21 days following application. The results shown in Table 1 below are mean averages over the two rates of nicosulfuron, and the three replicates.

[3] = tested on: Polygonum convolvulus (POLCO); assay: Adjuvant efficacy with mesotrione, glasshouse spray test; conditions: mesotrione SC, mean over 30 and 60 g/ha and 3 replicates; adjuvant 0.2% v/v (none in No Adjuvant rows); % leaf area killed, 21 days after application; Tests 1-4 separate runs
Protocol: (§4) The efficacy of adjuvants 1-12 as an adjuvant for the herbicide mesotrione was tested in a glasshouse against four weed species sown into standard soil in pots and cultivated under controlled conditions in a glasshouse (at 24/18° C. day/night; 16 hours light; 65% humidity). Mesotrione was added to the spray tank as a standard SC (suspension concentrate) formulation.
(§5) The spray tests were also carried out using mesotrione in conjunction with adjuvants 1-12. The adjuvants were added to the spray solution at a rate of 0.2% v/v unless otherwise stated. All spray solutions also contained 10% w/w of iso-Propanol. The weed species and their BBCH growth stage at spraying were Brachiaria platyphylla (BRAPP; growth stage 13-14) or Brachiaria plantaginea (BRAPL; growth stage 13-14), Commelina benghalensis (COMBE; growth stage 13), Digitaria sanguinalis (DIGSA; growth stage 14), and Polygonum convolvulus (POLCO; growth stage 13-14). Each spray test was replicated three times.
(§6) The test plants were then grown in a glasshouse under controlled conditions (at 24/18° C. day/night; 16 hours light; 65% humidity) and watered twice a day. The efficacy of the herbicide was assessed visually and expressed as a percentage of the leaf area killed. Samples were assessed at a time period of 21 days following application. The results shown in Table 3 below are mean averages over the two rates of mesotrione and the three replicates.

[4] = tested on: Digitaria sanguinalis (DIGSA); assay: as above; conditions: mesotrione SC, mean over 30 and 60 g/ha and 3 replicates; adjuvant 0.2% v/v (none in No Adjuvant rows); % leaf area killed, 21 days after application; Tests 1-4 separate runs
Protocol: as §4, §5, §6

[5] = tested on: four weed species (ALOMY, AVEFA, LOLPE, SETVI); assay: Adjuvant efficacy with pinoxaden, glasshouse spray test, average over all species; conditions: pinoxaden EC, mean over 7.5 and 15 g/ha, adjuvant 0.2% v/v (none in No Adjuvant rows), 21 days, average of ALOMY
Protocol: The efficacy of adjuvants 1-12 as adjuvants for the herbicide pinoxaden were tested in a glasshouse against four weed species, sown into standard soil in pots and cultivated under controlled conditions in a glasshouse (at 20/16° C. day/night; 16 hours light; 65% humidity). Pinoxaden was added to the spray tank as a standard EC (emulsifiable concentrate) formulation.
The spray tests were also carried out using pinoxaden in conjunction with adjuvants 1-12. The adjuvants were added to the spray solution at a rate of 0.2% v/v unless otherwise stated. All spray solutions also contained 10% w/w of iso-Propanol. The weed species and their BBCH growth stage at spraying were Avena fatua (AVEFA; growth stage 12), Lolium perenne (LOLPE; growth stage 13), Alopecurus myosuroides (ALOMY; growth stage 13), and Setaria viridis (SETVI; growth stage 13-14). Each spray test was replicated three times. The test plants were then grown in a glasshouse under controlled conditions (at 20/16° C. day/night; 16 hours light; 65% humidity) and watered twice a day. The efficacy of the herbicide was assessed visually and expressed as a percentage of the leaf area killed. Samples were assessed at a time period of 21 days following application. The results shown in Table 4 below are mean averages over the two rates of pinoxaden, and the three replicates.

Ipomea hederacea (IPOHE) = assay: Adjuvant efficacy with fomesafen, glasshouse spray test; conditions: fomesafen sodium salt SL, mean over 100 and 200 g/ha and 3 replicates; adjuvant 0.2% v/v (none in No Adjuvant rows); % leaf area killed, 21 days after application; Tests 1-4 separate runs
Protocol: as §1, §2, §3

[6] = tested on: Abutilon theophrasti (ABUTH); assay: as above; conditions: fomesafen sodium salt SL, mean over 100 and 200 g/ha and 3 replicates; adjuvant 0.2% v/v (none in No Adjuvant rows); % leaf area killed, 21 days after application; Tests 1-4 separate runs
Protocol: as §1, §2, §3

Setaria viridis (SETVI) = assay: as above; conditions: fomesafen sodium salt SL, mean over 100 and 200 g/ha and 3 replicates; adjuvant 0.2% v/v (none in No Adjuvant rows); % leaf area killed, 21 days after application; Tests 1-4 separate runs
Protocol: as §1, §2, §3

[7] = tested on: Chenopodium album (CHEAL); assay: as above; conditions: fomesafen sodium salt SL, mean over 100 and 200 g/ha and 3 replicates; adjuvant 0.2% v/v (none in No Adjuvant rows); % leaf area killed, 21 days after application; Tests 1-4 separate runs
Protocol: as §1, §2, §3

| Compound | Mean % Herbicidal Activity Average over all Species [1] | Mean % Herbicidal Activity Average over all Species [2] | Mean % Herbicidal Activity POLCO [3] | Mean % Herbicidal Activity DIGSA [4] | Mean % Herbicidal Activity Average over all Species [5] | Mean % Herbicidal Activity IPOHE (Ipomea hederacea (IPOHE)) | Mean % Herbicidal Activity ABUTH [6] | Mean % Herbicidal Activity SETVI (Setaria viridis (SETVI)) | Mean % Herbicidal Activity CHEAL [7] |
| --- | --- | --- | --- | --- | --- | --- | --- | --- | --- |
| CCCCCCOc1cc(OCCOCCOC)ncn1 [Adjuvant 1] | 77% | 83% | 81% | 81% | 55% | 91% | 74% | 65% | 79% |
| CCCCCCOc1cc(OCCOCCOCCOCCOCCOCCOCCOCCOCCOCCOC)ncn1 [Adjuvant 2] | 68% | 82% | 94% | 79% | 47% | 95% | 57% | 53% | 68% |
| CCCCCCOc1cc(OCCOCCOCCOCCOCCOCCOCCOCCOCCOCCOCCOCCOCCOCCOCCOCCOCCOCCOCCOCCOC)ncn1 [Adjuvant 3] | 56% | 76% | 92% | 83% | 44% | 88% | 47% | 37% | 54% |
| CCCCCCCCCOc1cc(OCCOCCOCCOCCOCCOCCOCCOC)ncn1 [Adjuvant 4] | 61% | 73% | 93% | 83% | 52% | 93% | 51% | 53% | 45% |
| CCCCCCCCCOc1cc(OCCOCCOCCOCCOCCOCCOCCOCCOCCOCCOC)ncn1 [Adjuvant 5] | 57% | 63% | 94% | 72% | 41% | 64% | 60% | 49% | 55% |
| CCCCCCCCCCCCOc1cc(OCCOCCOCCOCCOCCOCCOCCOC)ncn1 [Adjuvant 6] | 50% | 71% | 84% | 83% | 63% | 64% | 31% | 25% | 80% |
| CCCCCCCCCCCCOc1cc(OCCOCCOCCOCCOCCOCCOCCOCCOCCOCCOC)ncn1 [Adjuvant 7] | 71% | 81% | 70% | 80% | 84% | 98% | 46% | 45% | 94% |
| CCCCCCCCCCCCCCCCOc1cc(OCCOCCOCCOCCOCCOCCOCCOCCOCCOCCOC)ncn1 [Adjuvant 8] | 60% and 75% and 43% | 80% and 85% and 86% | 82% and 92% and 93% | 84% and 81% and 83% | 69% and 56% and 67% | 92% and 97% and 51% | 53% and 75% and 36% | 17% and 65% and 13% | 78% and 65% and 73% |
| CCCCCCCCC=CCCCCCCCCOc1cc(OCCOCCOC)ncn1 [Adjuvant 9] | 67% | 80% | 92% | 82% | 58% | 88% | 52% | 64% | 64% |
